Laboratory results taken from patent US9388124B2, “Ingenol-3-acylates I” (LEO LABORATORIES LIMITED, priority 2010, dated 2016).
Where two headings read alike, the source gives them in different places.

Tests used:
Format in all cases: cell-based
[1] = test system: Primary human epidermal keratinocytes, HeKa; experiment: HeKa cytokine release (IL-8) assay
Experimental: HeKa Cytokine Release (IL-8) Assay:
Primary human epidermal keratinocytes, HeKa, were seeded (10.000 cells/well) in 96-well plates the day before the assay. Test compounds were diluted in DMSO (dimethyl sulfoxide) and further diluted in assay medium and pipetted into wells of 96 well-plates containing HeKa cells. The plates were incubated for 6 h at 37° C. in humidified air with 5% CO2. Plates were centrifuged briefly to spin down cells at 4° C., the supernatant was removed and analysed by Meso Scale Discovery (MSD) 4-spot cytokine assay (Pro-inflammatory II Ultra Sensitive kit, MSD, MD, USA). The MSD assay employs a sandwich immunoassay format where capture antibodies are coated in a patterned array on the bottom of the wells of a 4-Spot-Multi-MSD plate. Standard samples were incubated in the MULTI-SPOT plates as well, and the cytokine (IL-8) binds to its corresponding capture antibody spot. The cytokine level was quantitated on a SECTOR™ Imager using a cytokine-specific Detection Antibody labelled with MSD SULFO-TAG™ reagent.
(§1) Test compound titration curves were fitted to a four-parameter sigmoidal curve after normalizing the effect of the test compound to the effect of the positive control (1.5×10^−7 M PEP0005). Rel EC50 denotes the concentration of test compound producing an effect that is midway between the fitted top and bottom.

[2] = test system: PMN's (polymorphonuclear leukocytes); experiment: Neutrophil oxidative burst assay; conditions: Leukocyte, 40 min, read-out: Neutrophil oxidative burst Rel EC50 range
Experimental: Neutrophil Oxidative Burst Assay:
PMN's (polymorphonuclear leukocytes) were isolated and purified from fresh buffy coats by sequential sedimentation, density centrifugation and lysis of contaminating erythrocytes. Buffy coats were incubated with 2% methocel for 30-45 min to differentially sediment red blood cells. The leukocyte-rich supernatant was transferred to lymphoprep tubes to remove mononuclear cells by density centrifugation (400×g, 30 min). The pellet was resuspended and any remaining erythrocytes lysed using 0.2% NaCl for 30 sec before restoring isotonicity by the addition of 1.2% NaCl. This step was repeated until the cell pellet appears relatively free of red blood cells. Cells were resuspended in DPBS (Dulbecco's Phosphate Buffered Saline) (w.o. Ca^2+, Mg^2+) and the concentration adjusted to 1.4×10^6 cells/ml in HBSS (Hanks Balanced Salt solution) (w Ca^2+, Mg^2+) containing 0.1% BSA (Bovine Serum Albumin) and 5 mM glucose just prior to assay initiation. Titrated reference and test compounds were pre-mixed with HE (Hydroethidine) (10 μM final assay concentration) before addition to 96-well plates containing 2.5×10^5 cells. Following 40 min incubation at RT, changes in the respiratory burst was estimated by measuring fluorescence at 579 nm (excitation: 485 nm) using an Envision plate reader.
as §1, with “(5×10^−7” for “(1.5×10^−7”, “bottom. Abs EC50 is the concentration of test compound that provokes a response corresponding to 50% of the maximal effect associated with the positive control (5×10^−7 M PEP0005).” for “bottom.”

HeLa cells = experiment: Necrosis assay; conditions: Homo sapiens, 0.5 h, read-out: HeLa Necrosis EC50 range
Experimental: HeLa cells (ATCC CCL-002) were grown in minimal essential medium (Invitrogen catalog no. 42360) containing 10% fetal bovine serum, 100 IU/ml penicillin and 100 μg/ml streptomycin. 4,000-6,000 cells were seeded into 96-well black ViewPlates-plates, clear bottom, (Perkin Elmer) in 100 μl medium and incubated overnight. Compounds were dissolved and pre-diluted in DMSO in 96-well polypropylene plates (Greiner) in a concentration range of 15 μM to 600 μM. At the time of the experiment cell plates were placed on heating blocks at 37° C., medium was removed and 40 μl fresh, pre-warmed medium was added per well. Cells were incubated for 15 min before addition of compounds. In parallel, 3 μl of compounds were diluted with 197 μl growth medium on a Tecan freedom-EVO pipetting station using 250 μl/s pipetting speed, in order to ensure effective mixing of the highly concentrated compound solutions with the aqueous phase. These pre-dilution plates were then equilibrated on heating blocks at 37° C. for 10 min. 80 μl pre-diluted compound were transferred manually to the corresponding wells containing HeLa cells yielding compound concentrations of 10 μM to 400 μM. Control conditions were 1% DMSO in growth medium (100% viability) and 400 μM ingenol mebutate in growth medium (0% viability). Plates were incubated on the heating blocks at 37° C. for 30 min. At the end of the incubation 10 μl PrestoBlue reagent (Invitrogen) were added to each well, plates were sealed with black seal, followed by incubation at 37° C. for 10 min with gentle shaking (150 rpm). Subsequently, plates were placed at room temperature for 20-30 min. Plates were read immediately after on an Envision Fluorescence reader (Perkin Elmer) with excitation at 535 nm and emission at 630 nm. Test compound titration curves were fitted to a four-parameter sigmoidal curve after normalizing the effect of the test compound to the effect of the positive control (4 10^−4 M PEP0005/ingenol mebutate). AbsEC50 denotes the concentration of test compound producing 50% effect.

[3] = HEKa, 6 h, read-out: HeKa cytokine release (IL-8) Rel EC50 range
[4] = HeKa cells, 6 h at 37° C., MSD IL-8, normalized to 1.5×10^−7 M PEP0005, read-out: HeKa cytokine release (IL-8) Rel EC50 range
[5] = PMNs, 40 min at RT, hydroethidine fluorescence, normalized to 5×10^−7 M PEP0005
[6] = HeLa cells, 30 min at 37° C., PrestoBlue, AbsEC50, normalized to 4 10^−4 M PEP0005/ingenol mebutate

Structure (SMILES)	EC50 [1, 3] [nM]	EC50 [2] [nM]	EC50 (HeLa cells; HeLa) [nM]	EC50 [1, 4] [nM]	EC50 [2, 5] [nM]	EC50 (HeLa cells; [6]) [nM]
C=C(C)C(=O)O[C@H]1C(C)=C[C@]23C(=O)[C@@H](C=C(CO)[C@@H](O)[C@]12O)[C@H]1[C@@H](C[C@H]3C)C1(C)C [Compound 101, Ingenol 3-(2-methyl-acrylate)]	> 100	< 20	150000 to 350000	–	–	–
CC(C)=CC(=O)O[C@H]1C(C)=C[C@]23C(=O)[C@@H](C=C(CO)[C@@H](O)[C@]12O)[C@H]1[C@@H](C[C@H]3C)C1(C)C [Compound 102, Ingenol 3-(3-methyl-butenoate)]	20 to 100	< 20	150000 to 350000	–	–	–
CC1=C[C@]23C(=O)[C@@H](C=C(CO)[C@@H](O)[C@]2(O)[C@H]1OC(=O)C(C)=C(C)C)[C@H]1[C@@H](C[C@H]3C)C1(C)C [Compound 103, Ingenol 3-(2,3-dimethyl-butenoate)]	< 20	< 20	150000 to 350000	–	–	–
C=C(CC)C(=O)O[C@H]1C(C)=C[C@]23C(=O)[C@@H](C=C(CO)[C@@H](O)[C@]12O)[C@H]1[C@@H](C[C@H]3C)C1(C)C [Compound 104, Ingenol 3-(2-methylene-butyrate)]	20 to 100	< 20	150000 to 350000	–	–	–
CC1=C[C@]23C(=O)[C@@H](C=C(CO)[C@@H](O)[C@]2(O)[C@H]1OC(=O)C(C)C)[C@H]1[C@@H](C[C@H]3C)C1(C)C [Compound 105, Ingenol 3-(2-methyl-propanoate)]	20 to 100	< 20	–	–	–	–
CC1=C[C@]23C(=O)[C@@H](C=C(CO)[C@@H](O)[C@]2(O)[C@H]1OC(=O)CC(C)C)[C@H]1[C@@H](C[C@H]3C)C1(C)C [Compound 106, Ingenol 3-(3-methyl-butanoate)]	20 to 100	< 20	–	–	–	–
CCC(C)C(=O)O[C@H]1C(C)=C[C@]23C(=O)[C@@H](C=C(CO)[C@@H](O)[C@]12O)[C@H]1[C@@H](C[C@H]3C)C1(C)C (stereo partly shown) [Compound 107a and Compound 107b, Ingenol 3-(RS-2-methyl-butanoate)]	20 to 100	< 20	–	–	–	–
CC1=C[C@]23C(=O)[C@@H](C=C(CO)[C@@H](O)[C@]2(O)[C@H]1OC(=O)CC(C)(C)C)[C@H]1[C@@H](C[C@H]3C)C1(C)C [Compound 108, Ingenol 3-(3,3-dimethyl-butanoate)]	20 to 100	< 20	150000 to 350000	–	–	–
CCC(CC)C(=O)O[C@H]1C(C)=C[C@]23C(=O)[C@@H](C=C(CO)[C@@H](O)[C@]12O)[C@H]1[C@@H](C[C@H]3C)C1(C)C [Compound 109, Ingenol 3-(2-ethyl-butanoate)]	< 20	< 20	150000 to 350000	–	–	–
CC[C@@H](C)C(=O)O[C@H]1C(C)=C[C@]23C(=O)[C@@H](C=C(CO)[C@@H](O)[C@]12O)[C@H]1[C@@H](C[C@H]3C)C1(C)C [Compound 110, Ingenol 3-(2R-methyl-butanoate)]	20 to 100	< 20	–	–	–	–
C/C=C(\C)C(=O)O[C@H]1C(C)=C[C@]23C(=O)[C@@H](C=C(CO)[C@@H](O)[C@]12O)[C@H]1[C@@H](C[C@H]3C)C1(C)C [Compound 111, Ingenol 3-tiglate]	–	–	–	20 to 100	< 20	< 350000
CC1=C[C@]23C(=O)[C@@H](C=C(CO)[C@@H](O)[C@]2(O)[C@H]1OC(=O)Cc1ccccc1)[C@H]1[C@@H](C[C@H]3C)C1(C)C [Compound 112, Ingenol 3-(phenyl-acetate)]	–	–	–	> 100	< 20	150000 to 350000
COC(=O)/C=C/C(=O)O[C@H]1C(C)=C[C@]23C(=O)[C@@H](C=C(CO)[C@@H](O)[C@]12O)[C@H]1[C@@H](C[C@H]3C)C1(C)C [Compound 113, Ingenol 3-(2Z-(methoxycarbonyl))-acrylate]	–	> 100	–	–	–	–
CC1=C[C@]23C(=O)[C@@H](C=C(CO)[C@@H](O)[C@]2(O)[C@H]1OC(=O)C(C)C1CCCCC1)[C@H]1[C@@H](C[C@H]3C)C1(C)C (stereo partly shown) [Compound 114, Ingenol 3-(2-cyclohexylpropanoate)]	< 20	< 20	150000 to 350000	–	–	–
CO/N=C(\C(=O)O[C@H]1C(C)=C[C@]23C(=O)[C@@H](C=C(CO)[C@@H](O)[C@]12O)[C@H]1[C@@H](C[C@H]3C)C1(C)C)c1ccccc1 [Compound 115, Ingenol 3-((2Z)-2-methoxyimino-2-phenyl-acetate)]	< 20	20 to 100	< 150000	–	–	–
CO/N=C(/C(=O)O[C@H]1C(C)=C[C@]23C(=O)[C@@H](C=C(CO)[C@@H](O)[C@]12O)[C@H]1[C@@H](C[C@H]3C)C1(C)C)c1ccccc1 [Compound 116, Ingenol 3-((2E)-2-methoxyimino-2-phenyl-acetate)]	20 to 100	20 to 100	–	–	–	–
CC1=C[C@]23C(=O)[C@@H](C=C(CO)[C@@H](O)[C@]2(O)[C@H]1OC(=O)/C(C)=C\c1ccc(C)cc1)[C@H]1[C@@H](C[C@H]3C)C1(C)C [Compound 117, Ingenol 3-((Z)-2-methyl-3-(p-tolyl)prop-2-enoate)]	< 20	< 20	< 150000	–	–	–
C/C=C(/C(=O)O[C@H]1C(C)=C[C@]23C(=O)[C@@H](C=C(CO)[C@@H](O)[C@]12O)[C@H]1[C@@H](C[C@H]3C)C1(C)C)c1ccccc1 [Compound 118, Ingenol 3-((E)-2-phenylbut-2-enoate)]	< 20	< 20	< 150000	–	–	–
CC1=C[C@]23C(=O)[C@@H](C=C(CO)[C@@H](O)[C@]2(O)[C@H]1OC(=O)C(c1ccccc1)c1ccccc1)[C@H]1[C@@H](C[C@H]3C)C1(C)C [Compound 119, Ingenol 3-(2,2-diphenylacetate)]	< 20	< 20	< 150000	–	–	–
CC1=C[C@]23C(=O)[C@@H](C=C(CO)[C@@H](O)[C@]2(O)[C@H]1OC(=O)C(C#N)=C1CCCCC1)[C@H]1[C@@H](C[C@H]3C)C1(C)C [Compound 120, Ingenol 3-(2-cyano-2-cyclohexylidene-acetate)]	> 100	< 20	–	–	–	–
